Results from patent US12071436B2, “Anti-parasitic compounds and uses thereof” (Memorial Sloan-Kettering Cancer Center, priority 2016, dated 2024).
Values after ≈ are worked out from the molar mass of the structure shown. “Also recorded” adds a separate entry of the source. Like-named read-outs stand apart in the source and are kept apart here.

Legend:
[1] = Plasma pharmacokinetics and liver distribution study in female BALB/c mice; assay type: in vivo, mouse; details: 100 mg/kg, female BALB/c mice; for Tmax: mouse, plasma, read-out: Tmax (plasma)
Description: A plasma pharmacokinetics and liver distribution study of selected compounds, including Pyrrolopyridine-008 (2015-foleyc-216), Pyrrolopyridine-D20-ent (2015-foleyc-217), and Pyrrolopyridine-M03 (2015-foleyc-218), in female BALB/c mice was conducted following a single intraperitoneal and oral administration. […] The blood samples were collected from a set of […] mice at each time point in labeled micro centrifuge tube containing K2EDTA as anticoagulant. Plasma samples were separated by centrifugation at 4000 rpm for 10 min and stored below −70° C. until bioanalysis. After collection of blood sample, animals were humanely euthanized by carbon dioxide asphyxiation to collect liver from Group 1 and Group 2 at all the time points. The collected tissues were rinsed in PBS and were homogenized with nine times of liver weight in ice cold phosphate buffer saline (pH 7.4) and stored below −70° C. until bio-analysis. Total homogenate volume was ten times the tissue weight. All samples were processed for analysis by protein precipitation using acetonitrile and analyzed with fit-for-purpose LC-MS/MS method (LLOQ: 2.01 ng/mL for plasma and 50.30 ng/g for liver). Pharmacokinetic parameters were calculated using the non-compartmental analysis tool of Phoenix WinNonlin® (Version 6.3).

P. falciparum Dd2 = experiment: Anti-plasmodial growth inhibition, SYBR green I-based DNA quantification; assay type: cell-based; details: Plasmodium falciparum, 72 h incubation, n=3
Description: (§1) Select compounds described herein were evaluated for structure-activity analyses for anti-plasmodial activity in vitro. For Dd2 EC50 (M), calculations were for n=3. For HepG2 EC50 (M), calculations were for n=1. For the human microsomal stability determination, t was 60 minutes.
Different dilutions of the compound in RPMI 1640 (Life Technologies) from a stock of 10 mM in dimethyl sulfoxide (DMSO) were added to the culture at a 1% parasitemia and 2% hematocrit in 96-well black plates (Santa Cruz Biotechnology). Maximum DMSO concentration in the culture never exceeded 0.25%. Chloroquine at 1 μM was used as a positive control to determine the baseline value. Following 72 h incubation at 37° C., the ability of the compounds to inhibit growth of the parasite was determined by a SYBR green I-based DNA quantification assay (See Bennett et al., 2004, Chemother. 48, 1807-1810; see also Johnson et al., 2007, Antimicrob. Agents. Chemother. 51, 1926-1933; Smilkstein et al., 2004, Antimicrob. Agents. Chemother. 48, 1803-1806). EC50 was calculated (n=3) from a dose response curve that was generated from a concentration range of 0-20 μM using GraphPad Prism v5.0.

[2] = system: synchronized parasite cultures (Dd2); experiment: Stage specific parasite inhibition (Giemsa smears, flow cytometry); assay type: cell-based, P. falciparum; details: for parasite stage development, Giemsa staining: 3×IC50, synchronized Dd2 cultures treated at ring, trophozoite or schizont stages, smears every 12 hours; for parasite stage progression, flow cytometry: 3×IC50, synchronized Dd2 cultures, YoYo-I DNA staining
Description: Select compounds described herein were evaluated for stage specific inhibition of parasite development. Tightly synchronized parasite cultures (Dd2) were treated with 3×IC50 concentrations of compound Tan003-M03 (“M03”), compound ent-Tan003-D20 (“D20-ent”), compound Tan003-O08 (“008”) or compound Tan002-O12 (“012”) at early ring, late ring, trophozoite, and schizont stages. Every 12 hours, Giemsa smears were made for treated cultures and samples were also collected and fixed for flow cytometry. […] Prior to flow analysis, fixed samples were permeabilized, RNase treated, and stained with YoYo-I as described in Bouillon et al., 2013. […] As the parasite matures, the DNA content increases and peaks start to spread to the right because of schizogony. Following reinvasion parasitemia increases in the next growth cycle, which is represented by an increase in peak height.

[3] = system: HepG2 human hepatoma cells; experiment: HepG2 cytotoxicity, MTS cell proliferation assay; assay type: cell-based; details: 48 h, n=1
Description: as §1
Selected compounds were evaluated for cytotoxicity using HepG2 human hepatoma cells. A 384-well clear bottom plate was seeded with 2,500 cells/well and incubated for 24 h. Serial dilutions of the compound (were added to the plate and plates were incubated for an additional 48 h. Viability of cells were assessed by MTS [(3-(4,5-dimethylthiazol-2-yl)-5-(3-carboxymethoxyphenyl)-2-(4-sulfophenyl)-2H-tetrazolium) cell proliferation assay (CellTiter 96® Aqueous non-radioactive cell proliferation assay, Promega) (See Cory et al., Cancer Communications, 3, 1991, p. 207-212).

Asynchronous cultures = experiment: Parasitocidal or parasitostatic determination (rate of killing); assay type: cell-based; details: for parasitocidal activity (rate of killing): 3×IC50, asynchronous cultures treated for 12, 24, 48, or 72 hours, washed, monitored for continued growth
Description: Asynchronous cultures were grown and treated with compounds, vehicle control or Dihydroartemisinin at 3×IC50 to determine their respective rate of killing curves. Cultures were treated for 12, 24, 48, or 72 hours with compound, washed several times to remove any inhibitor, and monitored for continued growth for several days. […] Overall, the exemplary compounds including, but not limited to, Tan003-M03 and ent-Tan003-D20 are parasitocidal agents blocking parasite maturation at the segmenter stage preventing egress, a novel mechanism of action absent among current antimalarials.

[4] = PAMPA, Corning Gentest Pre-coated PAMPA plate; assay type: in vitro ADME; details: 1×PBS, pH 7.4, five hours, ambient temperature, read-out: Permeability (log Pe, in [cm/s]) (converted)
Description: For selected compounds, a Parallel artificial membrane permeability assay (PAMPA) analysis was conducted. The 10 mM DMSO stock solutions for selected compounds (Tan003-M03, ent-Tan003-M03, Tan003-O08, and Tan003-D20) were diluted 50 fold with 1×PBS, pH 7.4, for a dose concentration of 200 µM and a volume of 300 μL in the Donor compartment of the Corning Gentest Pre-coated PAMPA plate. After preparation of the Donor plate, any precipitation was noted. The Acceptor compartment was filled with 1×PBS (200 μL), pH 7.4. After careful assembly of the PAMPA plate, it was left to incubate for five hours in the dark at ambient temperature. The previously prepared solubility assay was used to measure the initial concentration of the sample in buffer (C0). After the incubation was complete, the PAMPA plate was disassembled, and the samples were transferred from the Donor and Acceptor plates to 96-well plates for analysis by chemiluminescent nitrogen detection (CLND. The C0 plate was filtered prior to analysis by CLND.

Kinetic solubility assay = assay type: physicochemical; details: 24 °C, kinetic from dmso stock, ambient temperature
[5] = Human microsomal stability; assay type: in vitro ADME; details: t was 60 minutes
Description: as §1
To determine microsomal stability for selected compounds, a reaction plate was prepared by adding 691.25 μL, pre-warmed (37° C.) microsomal solution (0.63 mg/mL protein in 100 mM KPO4 with 1.3 mM EDTA) to an empty well of a 96 well plate and maintained at 37° C. The diluted 0.1 mM compound (8.75 μL) is added to the microsomal solution in the reaction plate and mixed thoroughly by repeated pipetting. The resulting solutions were pre-incubated for 5 minutes at 37° C. before preparing the T=0 plates. For the T=0 plates, an aliquot (160 μL) of each reaction solution was added to an empty well of a 96 well plate, as an exact replicate of the Reaction Plate. Cold (4° C.) MeOH (400 μL) is added to each well and mixed thoroughly by repeated pipetting. NADPH Regeneration solution (40 μL) is added to each well and mixed thoroughly by repeated pipetting. For the T=60 minute Incubation Plates (without NADPH), an aliquot (160 μL) of each reaction solution was added to an empty well of a 96 well plate, as an exact replicate of the Reaction Plate. LC-MS grade H2O (40 μL) is added to each well and mixed thoroughly by repeated pipetting. The plate was sealed and incubated at 37° C. for the incubation period. After incubation, cold (4° C.) MeOH (400 μL) is added to each well and mixed thoroughly by repeated pipetting. For the T=60 minute Incubation Plates, NADPH (95 μL) was added to the remaining solution (microsomes+test compound) in each well in the previously-prepared reaction plate to initiate the reaction. The plate was sealed and incubated at 37° C. for the incubation period. An aliquot (100 μL) was removed from each well at the desired time point and dispensed into a well of a 96-well plate. 200 μL of cold (4° C.) MeOH was […] the reaction.

[6] = 50 mM NaPO4 pH 6.5 buffer, pH 6.5, aqueous buffer, 50 mM NaPO4 pH6.5, 2.0% DMSO, read-out: Solubility LogS, at pH 6.5 (converted)
[7] = 1×PBS pH 7.4 buffer, pH 7.4, aqueous buffer, 1×PBS pH7.4, 2.0% DMSO, read-out: Solubility LogS, at pH 7.4 (converted)
[8] = SGF pH 1.2 buffer, pH 1.2, simulated gastric fluid, SGF pH1.2, 2.0% DMSO, read-out: Solubility LogS, at pH 1.2 (converted)

Row | Structure (SMILES) | Tmax ([1]; ip, single intraperitoneal dose) [min] | Tmax ([1]; single oral dose) [min] | plasma concentrations quantifiable till ([1]; single intraperitoneal dose) [h] | plasma concentrations quantifiable till ([1]; single oral dose) [h] | EC50 (P. falciparum Dd2) [nM] | parasite stage development, Giemsa staining [2] | parasite stage progression, flow cytometry [2] | EC50 [3] [µM] | parasitocidal activity (rate of killing) (Asynchronous cultures) | Papp at 5 h, 200 µM [4] [×10⁻⁶ cm/s] | solubility at 24 h (Kinetic solubility assay; [6]) [µM] | solubility at 24 h (Kinetic solubility assay; [7]) [µM] | solubility at 24 h (Kinetic solubility assay; [8]) [µM] | Human microsomal stability (%) [5] [%] | viable parasites in asynchronous culture (Asynchronous cultures; treatment for 72 hours)
1 | CCOC(=O)c1cc2c(c(-c3ccccc3)n1)[C@@H](CCO)N([S@+]([O-])C(C)(C)C)C2 [Tan002-O12, Ethyl (R)-2-((R)-tert-butylsulfinyl)-3-(2-hydroxyethyl)-4-phenyl-2,3-dihydro-1H-pyrrolo[3,4-c]pyridine-6-carboxylate] | 60 | 30 | 12 | 12 | 890 ± 130 | inhibit parasite development before egress | block parasite stage progression prior to egress | > 100 | not seen; also recorded: did not show any parasitocidal activity | – | – | – | – | – | –
2 | CC(C)(C)[S@@+]([O-])N1Cc2cc(C(=O)NCc3ccc4c(c3)OCO4)nc(-c3cccc(-c4cccnc4)c3)c2[C@H]1CCO [Tan003-008] | – | – | – | – | 530 ± 110 | – | – | 41 | – | 1.82 | 10 (≈ 5.99 µg/mL) | 12.6 (≈ 7.54 µg/mL) | 158 (≈ 94.9 µg/mL) | < 1 | –
3 | CC(C)(C)[S@+]([O-])N1Cc2cc(C(=O)NCc3ccccc3F)nc(-c3cccc(-c4cccnc4)c3)c2[C@@H]1CCO [Tan003-D20] | – | – | – | – | 380 ± 20 | – | – | – | – | 2.4 | 6.31 (≈ 3.61 µg/mL) | 7.94 (≈ 4.55 µg/mL) | 158 (≈ 90.8 µg/mL) | <1 | –
4 | CC(C)NC(=O)N1Cc2cc(C(=O)NCC(F)(F)F)nc(-c3cccc(-c4cc5ccccc5o4)c3)c2[C@H]1CCO [Tan003-M03, (R)-4-(3-(benzofuran-2-yl)phenyl)-3-(2-hydroxyethyl)-N^2-isopropyl-N^6-(2,2,2-trifluoroethyl)-1,3-dihydro-2H-pyrrolo[3,4-c]pyridine-2,6-dicarboxamide] | – | – | – | – | 240 ± 70 | inhibit parasite development before egress | block parasite stage progression prior to egress | 45 | parasitocidal and prohibit progression beyond segmenter stages; also recorded: parasitocidal and prevent any parasite development beyond the schizont stage when treated for at least 48 hours | 3.98 | 6.31 (≈ 3.57 µg/mL) | 7.94 (≈ 4.5 µg/mL) | 7.94 (≈ 4.5 µg/mL) | 61.5 | –
5 | CC(C)(C)[S@@+]([O-])N1Cc2cc(C(=O)NCc3ccc4c(c3)OCO4)nc(-c3cccc(-c4cccnc4)c3)c2[C@H]1CCO [Tan003-O08, (R)-N-(benzo[d][1,3]dioxol-5-ylmethyl)-2-((R)-tert-butylsulfinyl)-3-(2-hydroxyethyl)-4-(3-(pyridin-3-yl)phenyl)-2,3-dihydro-1H-pyrrolo[3,4-c]pyridine-6-carboxamide] | – | – | – | – | – | inhibit parasite development before egress | block parasite stage progression prior to egress | – | – | – | – | – | – | – | significantly decreases viable parasites
6 | CC(C)(C)[S@@+]([O-])N1Cc2cc(C(=O)NCc3ccccc3F)nc(-c3cccc(-c4cccnc4)c3)c2[C@H]1CCO [ent-Tan003-D20, (R)-2-((R)-tert-butylsulfinyl)-N-(2-fluorobenzyl)-3-(2-hydroxyethyl)-4-(3-(pyridin-3-yl)phenyl)-2,3-dihydro-1H-pyrrolo[3,4-c]pyridine-6-carboxamide] | – | – | – | – | 380 ± 90 | inhibit parasite development before egress | block parasite stage progression prior to egress | 60 | parasitocidal and prohibit progression beyond segmenter stages; also recorded: parasitocidal and prevent any parasite development beyond the schizont stage when treated for at least 48 hours | – | – | – | – | – | –
7 | CC(C)NC(=O)N1Cc2cc(C(=O)NCC(F)(F)F)nc(-c3cccc(-c4cc5ccccc5o4)c3)c2[C@@H]1CCO [ent-Tan003-M03] | – | – | – | – | 200 ± 20 | – | – | – | – | – | – | 6.31 (≈ 3.57 µg/mL) | – | 62.7 | –
